Here are results for 3 compounds from patent publication US20130178653A1, “NOVEL PRECURSOR OF RADIOLABELLED CHOLINE ANALOG COMPOUNDS” (IMPERIAL COLLEGE, priority 2010, published 2013).

Structures are written as SMILES. Read-outs that look alike come from different tables or passages of the source.

One data set deals with HCT116 tumors. Kind of data set: Effect of PD0325901 treatment in HCT116 tumor bearing mice ([^18F]D4-FCH-PET, tumor size). The data set is classed as in vivo. On the procedure: Dynamic [^18F]FCH and [^18F]D4-FCH imaging scans were carried out on a dedicated small animal PET scanner, quad-HIDAC (Oxford Positron Systems). The features of this instrument have been described previously (Barthel, H., et al., Cancer Res 2003; 63(13):3791-8). For scanning the tail veins, vehicle- or drug-treated mice were cannulated after induction of anesthesia (isofluorane/O2/N2O). The animals were placed within a thermostatically controlled jig (calibrated to provide a rectal temperature of ˜37° C.) and positioned prone in the scanner. [^18F]FCH or [^18F]D4-FCH (2.96-3.7 MBq) was injected via the tail vein cannula and scanning commenced. Dynamic scans were acquired in list mode format over a 60 min period as reported previously (Leyton, J., et al., Cancer Research 2006; 66(15):7621-9). The acquired data were sorted into 0.5 mm sinogram bins and 19 time frames (0.5×0.5×0.5 mm voxels; 4×15, 4×60, and 11×300 s) for image reconstruction, which was done by filtered back-projection using a two-dimensional Hamming filter (cutoff 0.6). The image data sets were visualized using the Analyze software (version 6.0; Biomedical Imaging Resource, Mayo Clinic). Cumulative images of 30 to 60 min dynamic data were used for visualization of radiotracer uptake and to draw regions of interest. Regions of interest were defined manually on five adjacent tumor regions (each 0.5 mm thickness). Dynamic data from these slices were averaged for each tissue (liver, kidney, muscle, urine, and tumor) and at each of the 19 time points to obtain time versus radioactivity curves. Corresponding whole body time versus radioactivity curves representing injected radioactivity were obtained by adding together radioactivity in all 200×160×160 reconstructed voxels. Tumor radioactivity was normalized to whole-body radioactivity and expressed as percent injected dose per voxel (% ID/vox). The normalized uptake of radiotracer at 60 min (% ID/vox60) was used for subsequent comparisons. […] The area under the curve was calculated as the integral of % ID/vox from 0 to 60 min

In the next data set the test system is HCT116 cells. The experiment in a line: Effect of PD0325901 on [^18F]D4-FCH metabolism and CHKA expression in HCT116 cells in culture. It counts as cell-based, human. The method, then:
HCT116 cells were grown in T150 flasks in triplicate until they were 70% confluent and then treated with vehicle (1% DMSO in growth medium) or 1 μmol/L PD0325901 in vehicle for 24 h. Cells were pulsed for 1 h with 1.1 MBq of either [^18F]D4-FCH or [^18F]FCH. The cells were washed three times in ice-cold phosphate buffered saline (PBS), scraped into 5 mL PBS, and centrifuged at 500×g for 3 min and then resuspended in 2 mL ice-cold methanol for HPLC analysis as described above for tissue samples. […] Briefly, HCT116 cells were grown in 100 mm dishes in triplicate and incubated with 5.0 MBq [^18F]FCH for 60 min at 37° C. to form the putative [^18F]FCH-phosphate. The cells were washed with 5 mL ice-cold PBS twice and then scraped and centrifuged at 750×g (4° C., 3 min) in 5 mL PBS. Cells were homogenized in 1 mL of 5 mmol/L Tris-HCl (pH 7.4) containing 50% (v/v) glycerol, 0.5 mmol/L MgCl2, and 0.5 mmol/L ZnCl2 and incubated with 10 units bacterial (type III) alkaline phosphatase (Sigma) at 37° C. in a shaking water bath for 30 min to dephosphorylate the [^18F]FCH-phosphate. The reaction was terminated by adding ice-cold methanol. Samples were processed as per plasma above and analyzed by radio-HPLC. Control experiments were done without alkaline phosphatase. […]

A further data set has as its system choline kinase A (CHKA). The experiment in a line: Choline kinase A expression in HCT116 tumors by western blotting. The data set is classed as in vivo, mice. The conditions noted are these: day 10, 25 mg/kg daily orally. On the procedure:
HCT116 tumors from mice that were injected with PD0325901 (25 mg/kg daily for 10 days, orally) or vehicle were analyzed for CHKA expression by western blotting. β-actin was used as the loading control. (b) Summary densitometer measurements for CHKA expression expressed as a ratio to β-actin. The results are the mean ratios±SE; n=3, * P=0.05.
Size-matched HCT116 tumor bearing mice were randomized to receive daily treatment by oral gavage of vehicle (0.5% hydroxypropyl methylcellulose+0.2% Tween 80) or 25 mg/kg (0.005 mL/g mouse) of the mitogenic extracellular kinase inhibitor, PD0325901, prepared in vehicle. [^18F]D4-FCH-PET scanning was done after 10 daily treatments with the last dose administered 1 h before scanning. […] The results are illustrated in FIGS. 18 and 19.
To understand further the mechanisms regulating [^18F]D4-FCH uptake with drug treatment, changes in CHKA expression in PD0325901 and vehicle-treated tumors excised after PET scanning were assessed.
(Immunoblotting shows a protein as a band on a membrane.)

In data set [1] the test system is HCT116 human colon xenografts. Particulars: mouse, in vivo. On the procedure: Time course biodistribution was carried out for [^18F]fluoromethylcholine, [^18F]fluoromethyl-[1-^2H2]choline and [^18F]fluoromethyl-[1,2-^2H4]choline in nude mice bearing HCT116 human colon xenografts.
Human colon (HCT116) tumors were grown in […] (Harlan, Bicester, United Kingdom) as previously reported (Leyton, J., et al., Cancer Research 2005; 65(10):4202-10). Tumor dimensions were measured continuously using a caliper and tumor volumes were calculated by the equation: volume=(π/6)×a×b×c, where a, b, and c represent three orthogonal axes of the tumor. Mice were used when their tumors reached approximately 100 mm^3. [^18F]Fluoromethylcholine, [^18F]fluoromethyl-[1-^2H2]choline and [^18F]fluoromethyl-[1,2-^2H4]choline (˜3.7 MBq) were each injected via the tail vein into awake untreated tumor bearing mice. The mice were sacrificed at pre-determined time points (2, 30 and 60 min) after radiotracer injection under terminal anesthesia to obtain blood, plasma, tumor, heart, lung, liver, kidney and muscle. Tissue radioactivity was determined on a gamma counter (Cobra II Auto-Gamma counter, Packard Biosciences Co, Pangbourne, UK) and decay corrected. Data were expressed as percent injected dose per gram of tissue.

The conditions of data set [2]: mouse, in vivo; for form of radioactivity in tumors: iv. The method, then:
Metabolite analysis of tissues including liver, kidney and tumor by HPLC was also accomplished. […] Choline and its metabolites lack any UV chromophore to permit presentation of chromatograms of the cold unlabelled compound simultaneously with the radioactivity chromatograms.
Liver, kidney, and tumor samples were obtained at 30 min. All samples were snap-frozen in liquid nitrogen. […] To ˜0.2 mL plasma was added ice-cold methanol (1.5 mL). The mixture was then centrifuged (3 min, 15,493×g, 4jC). […] Liver, kidney, and tumor samples were homogenized in ice-cold methanol (1.5 mL) using an IKA Ultra-Turrax T-25 homogenizer and subsequently treated as per plasma samples (above). All samples were analyzed by radio-HPLC on an Agilent 1100 series HPLC system (Agilent Technologies) equipped with a γ-RAM Model 3 γ-detector (IN/US Systems) and Laura 3 software (Lablogic). The stationary phase comprised a Waters μBondapak C18 reverse-phase column (300×7.8 mm) (Waters, Milford, Mass., USA). Samples were analyzed using a mobile phase comprising solvent A (acetonitrile/water/ethanol/acetic acid/1.0 mol/L ammonium acetate/0.1 mol/L sodium phosphate; 800/127/68/2/3/10) and solvent B (acetonitrile/water/ethanol/acetic acid/1.0 mol/L ammonium acetate/0.1 mol/L sodiumphosphate; 400/400/68/44/88/10) with a gradient of 0% B for 6 min, then 0>100% B in 10 min, 100% B for 0.5 min, 100>0% B in 1.5 min then 0% B for 2 min, delivered at a flow rate of 3 mL/min

For data set [3], the system named is human melanoma SKMEL-28 xenografts. Particulars: mouse, in vivo. The method, then: (§1) Dynamic [^18F]FCH and [^18F]D4-FCH imaging scans were carried out on a dedicated small animal PET scanner, quad-HIDAC (Oxford Positron Systems). The features of this instrument have been described previously (Barthel, H., et al., Cancer Res 2003; 63(13):3791-8). For scanning the tail veins, vehicle- or drug-treated mice were cannulated after induction of anesthesia (isofluorane/O2/N2O). The animals were placed within a thermostatically controlled jig (calibrated to provide a rectal temperature of ˜37° C.) and positioned prone in the scanner. [^18F]FCH or [^18F]D4-FCH (2.96-3.7 MBq) was injected via the tail vein cannula and scanning commenced. Dynamic scans were acquired in list mode format over a 60 min period as reported previously (Leyton, J., et al., Cancer Research 2006; 66(15):7621-9). The acquired data were sorted into 0.5 mm sinogram bins and 19 time frames (0.5×0.5×0.5 mm voxels; 4×15, 4×60, and 11×300 s) for image reconstruction, which was done by filtered back-projection using a two-dimensional Hamming filter (cutoff 0.6). The image data sets were visualized using the Analyze software (version 6.0; Biomedical Imaging Resource, Mayo Clinic). Cumulative images of 30 to 60 min dynamic data were used for visualization of radiotracer uptake and to draw regions of interest. Regions of interest were defined manually on five adjacent tumor regions (each 0.5 mm thickness). Dynamic data from these slices were averaged for each tissue (liver, kidney, muscle, urine, and tumor) and at each of the 19 time points to obtain time versus radioactivity curves. Corresponding whole body time versus radioactivity curves representing injected radioactivity were obtained by adding together radioactivity in all 200×160×160 reconstructed voxels. Tumor radioactivity was normalized to whole-body radioactivity and expressed as percent injected dose per voxel (% ID/vox). The normalized uptake of radiotracer at 60 min (% ID/vox60) was used for subsequent comparisons. The average of the normalized maximum voxel intensity across five slices of tumor % IDvox60max was also use for comparison to account for tumor heterogeneity and existence of necrotic regions in tumor. The area under the curve was calculated as the integral of % ID/vox from 0 to 60 min

The conditions of data set [4]: for parent compound still present after potassium permanganate treatment: 1 hour post-treatment, KMnO4, Na2CO3, H2O, rt, radio-HPLC.
The conditions of data set [5]: mouse, in vivo.
Data set [6] relates to choline oxidase. Kind of data set: Enzymatic oxidation study using choline oxidase. The conditions noted are these: 60 minute time point, room temperature, pH 7.
The conditions of data set [7]: mouse, in vivo, 60 min. The method, then:
as §1

In data set [8] the test system is choline oxidase. Particulars: 60 min, 1.76 MBq/mL, pH 7.
Data set [9] is described as follows: Oxidation potential in vivo (radio-HPLC of mouse plasma after i.v. injection). Particulars: 15 min after i.v. injection into mice.

Turning to `O=C(NOC[C@H](O)CO)c1ccc(F)c(F)c1Nc1ccc(I)cc1F` [PD0325901], the “[^18F]D4-FCH radiotracer retention in treated tumors” value in the data set on HCT116 tumors (10 daily treatments 25 mg/kg, HCT116 tumors, PET) is given as “marked reduction in radiotracer retention”. Further, the “imaging variables (% ID/vox60, % ID/vox60max, AUC) of [^18F]D4-FCH” value in the data set on HCT116 tumors (after 10 days of drug treatment, HCT116 tumors) is listed as “decreased”. Also, the “reduction in tumor size compared to the pretreatment group” value in the data set on HCT116 tumors (day 10, 25 mg/kg daily oral, HCT116 xenograft) was 12.2%. Also, the “[^18F]D4-FCH-phosphocholine formation” value in the data set on HCT116 cells (1 μmol/L for 24 h, 60-min uptake of [^18F]D4-FCH) is on record as “significantly inhibited”. For the same compound, in the data set with HCT116 cells (exponentially growing cells), the “CHKA expression in vitro” value is “reduction of CHKA expression”. Besides, in the data set with choline kinase A (CHKA), the “CHKA protein expression in tumors” value was “significant reduction”.
`[2H]C([2H])(O)C([2H])([2H])[N+](C)(C)C[18F]` [[^18F]D4-FCH, [^18F]fluoromethyl-[1,2-^2H4]choline]: the “tumor uptake at the later time points” value in data set [1] is “pronounced increase”. In data set [2], the “kidney radioactivity in the form of betaine” value is recorded as 20.6±6.2%, the “kidney radioactivity present as phosphocholine” value came out at 60.6±3.7%, the “liver radioactivity present as phosphocholine” value was “high proportion” and the “unknown metabolite (possibly the aldehyde intermediate) in liver” value amounted to 7.4±2.3%. Also, in data set [2], the “unknown metabolite in kidney” value was 8.8±0.2% and the “form of radioactivity in tumors” value is given as “mainly in the form of phosphocholine”. In data set [3], the “%IDvox60max (average of maximum pixel % ID/vox60 across 5 slices) compared to [^18F]FCH” value is “significantly higher” and the “tumor area under the time versus radioactivity curve (AUC) compared to FCH” value is listed as “higher”. Moreover, the “proportion of parent compound remaining (radio-HPLC), relative to [^18F]fluoromethylcholine” value in data set [4] (20 min) is reported as “greater proportion of the parent compound remaining”. In addition, the “parent compound still present after potassium permanganate treatment” value in data set [4] is ~80%. In data set [5], the “percentage of parent compound in plasma compared to [^18F]FCH” value was “consistently higher”. Further, the “conversion of parent tracer to betaine metabolite in plasma” value in data set [5] (iv) was 40%. In addition, the “parent radiotracer present (radio-HPLC distribution of choline species)” value in the data set on choline oxidase [6] is given as 29±4%.
As to `C[N+](C)(C[18F])CCO` [[^18F]FCH, [^18F]Fluoromethylcholine], in data set [2], the “liver radioactivity present as phosphocholine” value was “high proportion” and the “unknown metabolite (possibly the aldehyde intermediate) in liver” value was “not found”. In addition, in data set [2] (30 min), the “kidney radioactivity in the form of betaine” value was 53.5±5.3%, the “kidney radioactivity present as phosphocholine” value is reported as 31.8±9.8%, the “unknown metabolite in kidney” value was determined as 3.3±0.6% and the “form of radioactivity in tumors” value is “significant levels of [^18F]FCH-betaine”. Moreover, in data set [7], the “bladder (urine) radioactivity, % ID/vox60” value was found to be 6.70±0.71 % ID/vox; the “kidney radioactivity, % ID/vox60” value was 15.97±4.65 % ID/vox; the “liver radioactivity, % ID/vox60” value turned out to be 18.75±4.28 % ID/vox. Besides, the “tumor radiotracer uptake, % ID/vox60” value in data set [3] (60 min) came to 5.50±0.49 % ID/vox. The “parent compound still present after potassium permanganate treatment” value in data set [4] is recorded as “less than 40%”. Further, the “parent radiotracer present (radio-HPLC distribution of choline species)” value with choline oxidase [8] is 11±8%. Further, in data set [9], the “conversion of parent tracer to betaine metabolite in plasma” value is recorded as 80%.
